Data from US20250011404A1, “TARGETING APOE ENHANCES T-CELL KILLING IN CANCER IMMUNOTHERAPY” (Children's National Medical Center, priority 2021, published 2025).

System: mouse apoE gene
Experiment: gRNA screening by next generation sequencing for INDEL frequency in B16-F10 cells
Format: cell-based
Details: RNP electroporated into B16-F10 cells; NGS
Procedure: Six guide RNAs (gRNAs) were designed using IDT's gRNA design tool, targeting the mouse apoE gene. gRNAs were synthesized as 2-part crRNA: tracrRNA gRNAs with chemical modifications (Integrated DNA Technologies, Inc., IA) and were functionally screened by next generation sequencing (NGS) for high INDEL (insertion/deletion) frequency and low in-frame INDEL rates. gRNAs were prepared by complexing a 1:1 molar ratio of the crRNA: tracrRNA at a final concentration of 100 μM, heating to 95° C. and slowly cooling to room temperature. […]
The electroporated cells were plated in 1 well of a 6-well plate and allowed to grow until confluent. The cells were then dissociated by trypsinization, resuspended in media, and counted. […] The genomic DNA from each well was subject to quantification of total editing and analysis of INDEL profile by NGS to confirm a monoclonal isolate.
Genomic DNA libraries for sequencing were prepared using IDT rhAmpSeq targeted amplification. […] Libraries were purified using Agencourt® AMPure® XP system (Beckman Coulter, Brea, CA, USA) with a 1:1 ratio of beads to reaction by volume and quantified with quantitative real-time PCR (qPCR) before loading onto the Illumina® MiSeq platform (Illumina, San Diego, CA, USA). Paired end 150 base pair reads were sequenced using V2 chemistry. A sequencing depth of at least 1000 reads was obtained for each sample. […]

**Q.** With “GGACACTATGACGGAAGTAA (listed as DNA, chemistry not given here) [Mm. Cas9.APOE.1-E]” as the sequence, how does the INDEL frequency read?
**A.** 99%

**Q.** What about the “in-frame INDELs” value of the same sequence?
**A.** no
